Reference: PubChem BioAssay (NCI)
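Grown in 96-well plates, cells were treated for 48 hours with each compound at five concentrations. Insufficient inhibition: endpoint recorded as highest concentration tested. GI50 marks 50% less growth. Definition used: TGI = concentration required for complete inhibition of growth.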

Experiments:
Assay in all cases: DTP human tumour cell line panel, 48 h
NCI-H226 lung = tested on: NCI-H226 lung
IGROV1 ovarian = tested on: IGROV1 ovarian
RPMI-8226 leukemia = tested on: RPMI-8226 leukemia
NCI-H460 lung = tested on: NCI-H460 lung
SNB-19 CNS = tested on: SNB-19 CNS
HT29 colon = tested on: HT29 colon
KM12 colon = tested on: KM12 colon
HOP-92 NSCLC = tested on: HOP-92 NSCLC
HOP-62 NSCLC = tested on: HOP-62 NSCLC
CAKI-1 renal = tested on: CAKI-1 renal

SMILES | TGI (NCI-H226 lung) | TGI (IGROV1 ovarian) | TGI (RPMI-8226 leukemia) | TGI (NCI-H460 lung) | TGI (SNB-19 CNS) | TGI (HT29 colon) | TGI (KM12 colon) | TGI (HOP-92 NSCLC) | TGI (HOP-62 NSCLC) | TGI (CAKI-1 renal) | GI50 (NCI-H226 lung) | GI50 (IGROV1 ovarian) | GI50 (RPMI-8226 leukemia) | GI50 (NCI-H460 lung) | GI50 (HT29 colon) | GI50 (KM12 colon) | GI50 (HOP-92 NSCLC) | GI50 (HOP-62 NSCLC) | GI50 (CAKI-1 renal)
COc1ccc(C(SC2C(O)C(CO)OC2n2ccc(=O)[nH]c2=O)(c2ccccc2)c2ccc(OC)cc2)cc1 (centres undefined) | 31.9 µM | 40.9 µM | > 100 µM | 26 µM | 41 µM | 35.6 µM | 39.2 µM | 29.7 µM | 40.8 µM | > 100 µM |  |  |  |  |  |  |  |  | 
NCc1cccc(O)c1O | > 100 µM |  | > 100 µM | > 100 µM | > 100 µM | > 100 µM | > 100 µM | > 100 µM | > 100 µM | > 100 µM |  |  |  |  |  |  |  |  | 
CC(C)(C)n1c(=O)[nH]c(=O)n1C(C)(C)C | > 100 µM | > 100 µM |  | > 100 µM | > 100 µM | > 100 µM | > 100 µM | > 100 µM | > 100 µM | > 100 µM |  |  |  |  |  |  |  |  | 
CCOC(=O)c1cc(C)nc2c1c(=O)n(-c1ccccc1)c(=O)n2CCCCN1CCN(c2ccccc2)CC1 | > 100 µM | > 100 µM | 77.3 µM |  |  | > 100 µM | > 100 µM | > 100 µM | > 100 µM |  |  |  |  |  |  |  |  |  | 
CN(Cc1cnc2nc(N)nc(N)c2n1)c1ccc(C(=O)NC(CO)CCCO)cc1 (centres undefined) | > 100 µM | > 100 µM | > 100 µM | > 100 µM | > 100 µM | > 100 µM | > 100 µM |  | > 100 µM | > 100 µM |  |  |  |  |  |  |  |  | 
CN(C)CCCNc1ccc2nnn3c4ccc(O)cc4c(=O)c1c23 | 17.3 µM | 17.9 µM | 29.6 µM | 14.1 µM | 23.7 µM | 15.6 µM | 13.5 µM | 20.7 µM | 17.6 µM | 13.1 µM |  |  |  |  |  |  |  |  | 
c1ccc(/C(=N/Nc2ccncn2)c2ccccn2)cc1 | 96.2 µM | 53.6 µM | > 100 µM | > 100 µM | > 100 µM | > 100 µM | 93 µM |  | > 100 µM | > 100 µM |  |  |  |  |  |  |  |  | 
Cc1ccc(S(=O)(=O)Nn2c(O)c(C#N)c(-c3ccc(Cl)cc3)c(C#N)c2=O)cc1 | > 100 µM | > 100 µM | > 100 µM | > 100 µM | > 100 µM | > 100 µM | > 100 µM | > 100 µM | > 100 µM | > 100 µM |  |  |  |  |  |  |  |  | 
C=CC[n+]1c2ccccc2n2cc([N+](=O)[O-])ccc21 | 69.3 µM | 51.5 µM |  |  | > 100 µM | 39.4 µM | > 100 µM | 46.5 µM | > 100 µM | > 100 µM |  |  |  |  |  |  |  |  | 
CC1(C)CC(=O)C2(CC(CSc3ccccc3)C(CS(=O)(=O)c3ccccc3)C2)C(=O)C1 (centres undefined) | > 100 µM | > 100 µM | > 100 µM |  | > 100 µM | > 100 µM | > 100 µM | > 100 µM | > 100 µM | > 100 µM |  |  |  |  |  |  |  |  | 
COc1ccc(OC)c(SC(CC(=O)c2ccccc2)c2ccccc2)c1 (centres undefined) | 31.9 µM | 23.1 µM |  | > 100 µM | 27.8 µM | 35.8 µM | 15.2 µM | > 100 µM | 39.8 µM | 28.5 µM |  |  |  |  |  |  |  |  | 
O=C(O)COc1cc(-c2ccccc2)nc2cc(F)ccc12 | > 100 µM | > 100 µM | > 100 µM | > 100 µM | > 100 µM | > 100 µM | > 100 µM | > 100 µM | > 100 µM | > 100 µM |  |  |  |  |  |  |  |  | 
O=c1c(-c2ccccc2)c(SCCO)n(-c2ccccc2)c(=S)n1-c1ccccc1 | > 100 µM | > 100 µM | > 100 µM | > 100 µM | > 100 µM | > 100 µM | > 100 µM |  | > 100 µM | > 100 µM |  |  |  |  |  |  |  |  | 
O=[N+]([O-])c1cccc(N=Nc2c(O)c(S(=O)(=O)O)cc3cc(S(=O)(=O)O)ccc23)c1 | > 100 µM | > 100 µM |  | > 100 µM | > 100 µM |  | > 100 µM | > 100 µM | > 100 µM | > 100 µM |  |  |  |  |  |  |  |  | 
O=C1c2c(O)cccc2-c2nn(CCNCCO)c3ccc(NCCNCCO)c1c23 | 0.0964 µM | 5.8 µM | 7.65 µM | 0.934 µM | 0.405 µM | 13.1 µM | 7.73 µM | 0.609 µM | 0.63 µM | 1.81 µM |  |  |  |  |  |  |  |  | 
Cc1ccc(S(=O)CC(CF)OCn2cc(C)c(=O)[nH]c2=O)cc1 (centres undefined) | > 100 µM | > 100 µM | > 100 µM | > 100 µM | > 100 µM |  | > 100 µM | > 100 µM | > 100 µM | > 100 µM |  |  |  |  |  |  |  |  | 
COc1cc(C2C(Cl)C(=O)N2c2c(C)n(C)n(-c3ccccc3)c2=O)ccc1O (centres undefined) | 53.8 µM | 29.1 µM | 50.1 µM | 59.7 µM |  | 36 µM | 44.6 µM | 74 µM | 73.2 µM | > 100 µM |  |  |  |  |  |  |  |  | 
O=c1oc(C(C(F)(F)F)C(F)(F)F)nc2ccccc12 | > 100 µM | > 100 µM | > 100 µM | > 100 µM | > 100 µM | > 100 µM |  | > 100 µM | > 100 µM | > 100 µM |  |  |  |  |  |  |  |  | 
Cc1nc(N)c(N2CCN(CN)CC2)c(=O)[nH]1 | > 100 µM |  | > 100 µM | > 100 µM | > 100 µM | > 100 µM | > 100 µM |  | > 100 µM |  |  |  |  |  |  |  |  |  | 
CC1=NN(C(=O)c2ccc(Cl)cc2)C(=O)/C1=C/c1ccccc1O |  | > 100 µM | > 100 µM | > 100 µM | > 100 µM | > 100 µM | > 100 µM | > 100 µM | > 100 µM | > 100 µM |  |  |  |  |  |  |  |  | 
COC[C@@H](N=Cc1ccc([N+](=O)[O-])cc1)C(C)C |  | > 100 µM | > 100 µM | > 100 µM | > 100 µM | > 100 µM | > 100 µM |  |  | > 100 µM |  |  |  |  |  |  |  |  | 
COc1cnc2c(c1)C(=O)c1c-2n(CCCNCCO)c(=O)c2ccncc12 | 3.65 µM | > 100 µM | 7.58 µM | 3.99 µM |  | 16.7 µM | 11.7 µM | 6.31 µM | 26.6 µM | 13 µM | 601 nM | 2650 nM | 1850 nM | 513 nM | 633 nM | 1510 nM | 1400 nM | 1320 nM | 1370 nM
